The values that follow are results of earlier work, collected in patent US20050202101A1, “Method and composition for preventing or reducing the symptoms of insulin resistance syndrome” (Interhealth Nutraceuticals Incorporated, priority 2001, published 2005).

The test system of the data set is obese women. The following applies: with exercise.

Regarding chromium picolinate, the body weight change result is reported as “significant weight gain”.
